Holding throughout (assay): competitive isoTOP-ABPP
Common to all, as to format: binding

In experiment [1] the target is T1, CPOX Coproporphyrinogen-III oxidase, mitochondrial (Homo sapiens, UniProt P36551).
T1 construct: isoTOP-ABPP experiments performed in cell lysates (in vitro); endogenous in cells; host or cells: soluble proteome of human cancer cell lines (MDA-MB-231; Ramos and Jurkat also prepared)
T1 sequence (P36551 111-454): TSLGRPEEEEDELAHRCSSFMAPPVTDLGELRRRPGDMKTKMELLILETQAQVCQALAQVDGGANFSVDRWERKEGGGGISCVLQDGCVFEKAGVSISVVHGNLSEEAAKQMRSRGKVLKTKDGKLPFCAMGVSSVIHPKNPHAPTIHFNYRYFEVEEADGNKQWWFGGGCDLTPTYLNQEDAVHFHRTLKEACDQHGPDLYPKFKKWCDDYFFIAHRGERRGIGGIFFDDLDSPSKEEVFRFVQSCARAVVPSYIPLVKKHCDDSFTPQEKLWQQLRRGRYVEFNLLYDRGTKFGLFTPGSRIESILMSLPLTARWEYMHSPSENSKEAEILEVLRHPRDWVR
Set-up: key to isoTOP-ABPP reactivity ratio at lysine P36551_K404: R = MS1 peak area ratio, DMSO (heavy) / compound-treated (light). As to conditions: 50 uM, in vitro; for R value (DMSO/fragment) for probe 1 labeling: P36551_K404; for R value (DMSO/fragment) for probe 1 labeling / isoTOP-ABPP reactivity ratio at lysine P36551_K404: 231 sol. Here is the method: (§1) In vitro covalent fragment treatment for isoTOP-ABPP. All compounds were made up as solutions in DMSO (100×) and were used at a final concentration of 50 μM for activated esters and 100 μM for guanidinylating agents. For each profiling sample, 0.5 ml of lysate was treated with 5 μl of the 100× compound stock solution or 5 μl of DMSO. Samples were treated with activated esters for
(§2) STP-alkyne labeling and click chemistry. For concentration-dependent reactivity measurements by isoTOP-ABPP, 0.5 ml proteome aliquots were treated at ambient temperature with 1 mM STP-alkyne 1 (5 μl of 100 mM stock in DMSO) and 0.1 mM STP alkyne 1 (5 μl of 10 mM stock in DMSO), respectively. For competitive isoTOP-ABPP, after in vitro fragment treatment (detailed above), the samples were labeled for 1 h at ambient temperature with 0.1 mM STP-alkyne 1 (5 μl of 10 mM stock in DMSO). Samples were conjugated by copper-mediated azide-alkyne cycloaddition (CuAAC) to either the light (1 mM STP-alkyne or fragment treated) or heavy (0.1 mM STP-alkyne or DMSO treated) TEV tags (10 μl of 5 mM stocks in DMSO, final concentration=100 μM) using tris(2-carboxyethyl)phosphine hydrochloride
(§3) R value calculation and processing. The ratios of light and heavy MS1 peaks for each unique peptide were quantified with a CIMAGE software using default parameters (3 MS1 acquisitions per peak and signal to noise threshold set to 2.5). For reactivity measurements by isoTOP-ABPP, the R value was calculated from the ratio of MS1 peak areas, comparing the 1 mM STP alkyne sample (light TEV tag) with the 0.1 mM STP alkyne sample (heavy TEV tag). For competitive isoTOP-ABPP, the R value was calculated from the ratio of MS1 peak areas, comparing the DMSO treated sample (heavy TEV tag) with the compound treated sample (light TEV tag). […] Ratios for unique peptide entries are calculated for each experiment; overlapping peptides with the same modified lysine (for example, different charge states, MudPIT chromatographic steps or tryptic termini) are grouped together and the median ratio is reported as the final ratio (R). The peptide ratios reported by CIMAGE were further filtered to ensure the removal or correction of low-quality ratios in each individual data set. The quality filters applied were the following: removal of half tryptic peptides; for ratios with high standard deviations from the median (90% of the median or above) the lowest ratio was taken instead of the median; removal of peptides with R=20 and only a single MS2 event triggered during the elution of the parent ion; manual annotation of all the peptides with ratios of 20, removing any peptides with low quality elution profiles that remained after the previous curation steps (only done for competitive isoTOP-ABPP).
(§4) Cross-data processing for fragment screening. For compound treated samples, biological replicates of the same condition were averaged, if the standard deviation was below 60% of the mean; otherwise, for lysines with at least one R value <4 for a particular compound, the lowest value of the ratio set was taken. For lysines, where all R values for a particular compound were ≥4, the average was reported. For peptides containing several possible modified lysines, the lysine with the highest number of quantification events was used for analysis and the remaining, redundant peptides were reported as alternative modification sites. Peptides included in the aggregate dataset (those used for further bioinformatics and statistical analyses) were required to have been quantified in 2 experiments for competitive isoTOP-ABPP. Lysines were categorized as liganded, if they had at least one ratio R≥4 (hit fragments). For liganded lysines with R=20 for all liganding events, lysines were required to have been quantified with R=20 in two separate experiments and were further required to have been quantified with R<20 in one additional experiment.

In another experiment the target is T2, FAM136A Protein FAM136A (Homo sapiens, UniProt Q96C01).
T2 construct: isoTOP-ABPP experiments performed in cell lysates (in vitro); endogenous in cells; host or cells: soluble proteome of human cancer cell lines (MDA-MB-231; Ramos and Jurkat also prepared)
T2 sequence (Q96C01 whole entry): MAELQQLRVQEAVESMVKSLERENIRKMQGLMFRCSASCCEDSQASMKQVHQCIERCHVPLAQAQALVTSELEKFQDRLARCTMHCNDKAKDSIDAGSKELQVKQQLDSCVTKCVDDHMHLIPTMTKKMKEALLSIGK
The conditions noted are these: 50 uM, in vitro; for R value (DMSO/fragment) for probe 1 labeling: Q96C01_K99; for R value (DMSO/fragment) for probe 1 labeling / isoTOP-ABPP reactivity ratio at lysine Q96C01_K99: 231 sol. In outline:
(§5)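 Cell lysate (0.5 ml) was pre-treated with fragment, 50 μM for activated esters or 100 μM for guanidinylating agents, versus DMSO, then labeled 1 h at ambient temperature with 0.1 mM STP-alkyne. Light/heavy TEV tags attached by CuAAC; R = DMSO/compound MS1 peak-area ratio, median per lysine.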

A further experiment concerns the target T3, TTR Transthyretin (Homo sapiens, UniProt P02766).
T3 construct: isoTOP-ABPP experiments performed in cell lysates (in vitro); endogenous in cells; host or cells: MDA-MB-231 soluble lysate
The conditions noted are these: 50 uM, in vitro; for R value (DMSO/fragment) for probe 1 labeling: P02766_K35; for R value (DMSO/fragment) for probe 1 labeling / isoTOP-ABPP reactivity ratio at lysine P02766_K35: 231 sol. The method in brief: as §5

Experiment [2] addresses T4, TPMT Thiopurine S-methyltransferase (Homo sapiens, UniProt P51580).
T4 construct: isoTOP-ABPP experiments performed in cell lysates (in vitro); endogenous in cells; host or cells: soluble proteome of human cancer cell lines (MDA-MB-231; Ramos and Jurkat also prepared)
T4 sequence (P51580 1-245): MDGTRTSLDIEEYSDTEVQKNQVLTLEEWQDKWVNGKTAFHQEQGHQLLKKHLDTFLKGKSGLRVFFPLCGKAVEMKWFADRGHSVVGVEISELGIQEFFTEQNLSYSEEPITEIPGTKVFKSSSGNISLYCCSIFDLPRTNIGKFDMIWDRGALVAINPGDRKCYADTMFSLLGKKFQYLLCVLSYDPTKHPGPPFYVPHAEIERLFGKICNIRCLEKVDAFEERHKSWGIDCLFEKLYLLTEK
Further details: key to isoTOP-ABPP reactivity ratio at lysine P51580_K32: R = MS1 peak area ratio, DMSO (heavy) / compound-treated (light). As to conditions: 50 uM, in vitro; for R value (DMSO/fragment) for probe 1 labeling: P51580_K32; for R value (DMSO/fragment) for probe 1 labeling / isoTOP-ABPP reactivity ratio at lysine P51580_K32: 231 sol. Here is the method:
as §1, §2, §3, §4

For `O=C(Oc1c(F)c(F)c(F)c(F)c1F)C(c1ccccc1)c1ccccc1` [fragment 20, Pentafluorophenyl 2,2-diphenylacetate], the “R value (DMSO/fragment) for probe 1 labeling” value in experiment [1] was determined as 1.1; at FAM136A Protein FAM136A, 0.9; on TTR Transthyretin it was 1.4; in experiment [2], 0.9.

Turning to `O=C(Oc1c(F)c(F)c(F)c(F)c1F)c1cc(C(F)(F)F)cc(C(F)(F)F)c1` [fragment 21, Pentafluorophenyl 3,5-bis(trifluoromethyl)benzoate], the “R value (DMSO/fragment) for probe 1 labeling” value is listed as 1.0 in experiment [1], 1.1 at FAM136A Protein FAM136A, 2.6 at TTR Transthyretin and 4.9 in experiment [2].

`O=C(CCc1cn(-c2ccccc2)nc1-c1ccccc1)Oc1ccc([N+](=O)[O-])cc1[N+](=O)[O-]` [fragment 29, 2,4-Dinitrophenyl 3-(1,3-diphenyl-1H-pyrazol-4-yl)propanoate]: the “isoTOP-ABPP reactivity ratio at lysine P36551_K404” value in experiment [1] is on record as 18.1. Moreover, the “isoTOP-ABPP reactivity ratio at lysine Q96C01_K99” value on FAM136A Protein FAM136A is 0.8. Besides, the “isoTOP-ABPP reactivity ratio at lysine P02766_K35” value on TTR Transthyretin was 1.6. Moreover, in experiment [2], the “isoTOP-ABPP reactivity ratio at lysine P51580_K32” value stood at 1.4.

`O=C(Oc1ccc([N+](=O)[O-])cc1[N+](=O)[O-])C(c1ccccc1)c1ccccc1` [fragment 30, 2,4-Dinitrophenyl 2,2-diphenylacetate]: in experiment [1], the “isoTOP-ABPP reactivity ratio at lysine P36551_K404” value turned out to be 1.1. The “isoTOP-ABPP reactivity ratio at lysine Q96C01_K99” value on FAM136A Protein FAM136A was found to be 0.8. For the same compound, the “isoTOP-ABPP reactivity ratio at lysine P02766_K35” value at TTR Transthyretin was 1.5. For the same compound, in experiment [2], the “isoTOP-ABPP reactivity ratio at lysine P51580_K32” value turned out to be 1.5.

Take `Cn1cc(CC(=O)Oc2ccc([N+](=O)[O-])cc2[N+](=O)[O-])c2ccccc21` [fragment 32, 2,4-Dinitrophenyl 2-(1-methyl-1H-indol-3-yl)acetate]: the “isoTOP-ABPP reactivity ratio at lysine P36551_K404” value in experiment [1] was found to be 1.0. Moreover, the “isoTOP-ABPP reactivity ratio at lysine Q96C01_K99” value on FAM136A Protein FAM136A is on record as 0.9. The “isoTOP-ABPP reactivity ratio at lysine P02766_K35” value on TTR Transthyretin came to 3.1. Also, the “isoTOP-ABPP reactivity ratio at lysine P51580_K32” value in experiment [2] is recorded as 2.5.

Take `COc1cc(CCC(=O)Oc2ccc([N+](=O)[O-])cc2[N+](=O)[O-])cc(OC)c1OC` [fragment 33, 2,4-Dinitrophenyl 3-(3,4,5-trimethoxyphenyl)propanoate]: the “isoTOP-ABPP reactivity ratio at lysine P36551_K404” value in experiment [1] is on record as 1.0. On FAM136A Protein FAM136A, the “isoTOP-ABPP reactivity ratio at lysine Q96C01_K99” value amounted to 0.7. Moreover, the “isoTOP-ABPP reactivity ratio at lysine P02766_K35” value on TTR Transthyretin is on record as 2.7. In addition, the “isoTOP-ABPP reactivity ratio at lysine P51580_K32” value in experiment [2] is given as 3.7.

Consider `O=C(Oc1ccc([N+](=O)[O-])cc1[N+](=O)[O-])C1CCN(C(=O)OCc2ccccc2)CC1` [fragment 34, 1-Benzyl 4-(2,4-dinitrophenyl) piperidine-1,4-dicarboxylate], for which the “isoTOP-ABPP ratio (R) at liganded lysine P36551_K404” value in experiment [1] (sol, 231) is recorded as 1.1. Further, the “isoTOP-ABPP ratio (R) at liganded lysine Q96C01_K99” value at FAM136A Protein FAM136A (sol, 231) was 1.2. The “isoTOP-ABPP ratio (R) at liganded lysine P02766_K35” value on TTR Transthyretin (sol, 231) came out at 2.2. Moreover, the “isoTOP-ABPP ratio (R) at liganded lysine P51580_K32” value in experiment [2] (sol, 231) worked out at 1.6.

These data come from patent US20210255193A1, “LYSINE REACTIVE PROBES AND USES THEREOF” (The Scripps Research Institute, priority 2017, published 2021).
